{"source": "patent US9868935B2", "about": "“Composition and method of stem cells for preservation of cardiac tissue” (CRIOESTAMINAL, SAÚDE E TECNOLOGIA, SA., priority 2012, dated 2018)", "key": {"[1]": {"test_system": "CD34+ cells", "assay": "CD34+ cell self-renewal/differentiation by FACS", "format": "cell-based, human", "conditions": "LPA-treated; after 1 day of hypoxia", "description": "In an embodiment, multicolor analysis for progenitor and stem cell phenotyping was performed on a FACS Calibur cytometer (preferably, Becton Dickinson). Cells were stained for 1 h with APC or pacific blue antihuman CD45 (preferably, e-Bioscience), FITC anti-mouse CD45 (preferably, -Bioscience), PeCy7 anti-human CD33 (preferably, BD Bioscience), PE anti-human CD11b (preferably, BD Bioscience), FITC anti-human CD19 (preferably, BD Bioscience), PeCy7 anti-human CD3 (preferably, BD Bioscience), PE anti-human Glycophorin A (preferably, BD Bioscience), FITC anti-human CD41 (preferably, e-bioscience), and PeCy7 anti-human CD56 (preferably, BD Bioscience), washed with staining media and analyzed.\nTo examine the effect of LPA in CD34+ cell self-renewal/differentiation, untreated and LPA-treated CD34+ cells were cultured in X-vivo medium in hypoxia conditions for 1 day followed or not by 6 days in normoxia and finally characterized by FACS. After 1 day of hypoxia, both untreated or LPA-treated CD34+ cells started to differentiate into mast cells (between 14 and 17%) and neutrophils (between 5 and 8%) (FIG. 3B). Only 78% and 72% of the untreated or LPA-treated CD34+ cells express CD34 marker. CD34 expression is higher in cells that have been exposed to hypoxia than in normoxia conditions since only 6% of the cells cultured in normoxia conditions for 24 h express CD34 marker. […]"}, "[2]": {"test_system": "CD34+ cells", "assay": "Antagonist pretreatment and LPA-induced CD34+ cell survival in hypoxia (Annexin V/PI FACS)", "format": "cell-based, human", "conditions": "LPA 100 μM alone (+LPA, no antagonist); hypoxia 24 h", "description": "FIG. 5—LPA induces CD34+ cell survival mainly through peroxisome proliferator-activator receptor (PPAR). Cells were cultured in serum free medium with LPA. Cells were pretreated with Rho kinase inhibitor (Y-2762, 50 μM), mitogen-activated protein kinase (MAPK) inhibitor (PD98059, 60 μM), LPA1- and LPA3-specific inhibitor (Ki16425, 10 μM), or peroxisome proliferator-activator receptor g (PPARg) inhibitor (GW9662, 50 μM) for 1 hour before hypoxia and cell medium containing LPA (100 μM) for 24 h. Cells without any pretreatment and cultured in serum free medium with or without LPA, in hypoxia for 24 h, were used as positive and negative controls, respectively. Results are average±SEM (n=3-6). * Denote statistical significance: *P<0.05, **P<0.01, […].\nThe biological roles of LPA are diverse and include developmental, physiological, and pathophysiological effects (Lin, M. E., D. R. Herr, and J. Chun, Lysophosphatidic acid (LPA) receptors: signaling properties and disease relevance. Prostaglandins Other Lipid Mediat, 2010. 91(3-4): p. 130-8). To date up to five LPA receptors (LPARs) have been identified: LPA1-LPA5 (Choi, J. W., et al., LPA receptors: subtypes and biological actions. Annu Rev Pharmacol Toxicol, 2010. 50: p. 157-86). The receptors are G protein-coupled receptors (GPCRs) and their presence can be found in multiple tissues. LPA1, LPA2 and LPA3 are widely expressed in most tissues (Ishii, I., et al., Functional comparisons of the lysophosphatidic acid receptors, LP(A1)/VZG-1/EDG-2, LP(A2)/EDG-4, and LP(A3)/EDG-7 in neuronal cell lines using a retrovirus expression system. Mol Pharmacol, 2000. 58(5): p. 895-902). LP4 is expressed in specific organs, such as the pancreas, ovaries and thymus (Lee, C. W., et al., LPA(4)/GPR23 is a lysophosphatidic acid (LPA) receptor utilizing G(s)-, G(q)/G(i)-mediated calcium signaling and G(12/13)-mediated Rho activation. J Biol Chem, 2007. 282(7): p. 4310-7). LPA5 is expressed at low levels in multiple tissues (Lee, C. W., et al., GPR92 as a new G12/13- and Gq-coupled lysophosphatidic acid receptor that increases cAMP, LPA5. J Biol Chem, 2006. 281(33): p. 23589-97). To identify the receptor that is mediating the pro-survival effect of LPA (100 μM), was used Ki16425 (10 μM), an LPA1- and LPA3-specific antagonist, and GW9662 (50 μM), an antagonist of peroxisome proliferator-activator receptor γ (PPAR γ). Studies indicate that LPA has a high affinity by this last receptor (McIntyre, T. M., et al., Identification of an intracellular receptor for lysophosphatidic acid (LPA): LPA is a transcellular PPARgamma agonist. Proc Natl Acad Sci USA, 2003. 100(1): p. 131-6; Gustin, C., M. Van Steenbrugge, and M. Raes, LPA modulates monocyte migration directly and via LPA-stimulated endothelial cells. Am J Physiol Cell Physiol, 2008. 295(4): p. C905-14). This approach was complemented, by inhibiting downstream targets of the receptors including Rho kinase and mitogen-activated protein kinase (MAPK) using Y-2762 (50 μM) and PD98059 (60 μM) antagonists, respectively. It is known that all LPARs couple with and activate G proteins, which in turn activate MAPK (LPA1, LPA2, LPA3 and LPA4) and Rho kinase (LPA1, LPA2, LPA4 and LPA5) (Choi, J. W., et al., LPA receptors: subtypes and biological actions. Annu Rev Pharmacol Toxicol, 2010. 50: p. 157-86). Cells were treated for 1 h in X-Vivo medium containing a specific antagonist followed by culture under hypoxia conditions for 24 h. Cell survival was assessed by FACS analysis after Annexin V/PI staining. […] The number of viable cells decreased from 77% (+LPA) to 67% (P<0.01, n=19). […] Because the two signaling pathways are downstream targets of different LPARs (see above), this might indicate different contributions of LPARs in the survival of CD34+ cells."}}}
{"substance": "lysophosphatidic acid [LPA]", "values": [{"measurement": "cells expressing CD34 marker", "setting": "[1]", "result": 72, "unit": "%"}, {"measurement": "number of viable cells", "setting": "[2]", "result": "~77", "unit": "%"}]}
